Measured values published in BindingDB's records for PubMed 39740572 (Washington University School of Medicine).
pIC50: −log10 of the molar value.

Molecular target: T1, P2X purinoceptor 7 (Homo sapiens, UniProt Q99572)
T1 sequence (Q99572 whole entry): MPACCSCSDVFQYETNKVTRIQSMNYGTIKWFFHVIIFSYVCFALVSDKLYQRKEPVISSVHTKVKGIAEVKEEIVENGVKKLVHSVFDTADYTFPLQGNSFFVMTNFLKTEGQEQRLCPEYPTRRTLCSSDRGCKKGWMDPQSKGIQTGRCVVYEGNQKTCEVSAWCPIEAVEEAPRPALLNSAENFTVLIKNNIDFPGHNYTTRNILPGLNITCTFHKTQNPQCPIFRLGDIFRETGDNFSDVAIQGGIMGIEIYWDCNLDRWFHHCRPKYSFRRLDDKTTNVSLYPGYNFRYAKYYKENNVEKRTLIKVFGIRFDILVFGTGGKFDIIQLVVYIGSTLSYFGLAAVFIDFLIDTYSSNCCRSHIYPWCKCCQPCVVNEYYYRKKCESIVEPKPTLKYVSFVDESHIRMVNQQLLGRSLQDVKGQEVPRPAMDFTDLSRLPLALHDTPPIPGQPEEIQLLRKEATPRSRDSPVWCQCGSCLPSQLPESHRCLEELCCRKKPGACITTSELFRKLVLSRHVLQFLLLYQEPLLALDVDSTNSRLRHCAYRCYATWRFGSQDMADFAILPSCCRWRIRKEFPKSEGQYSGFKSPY
Test: Binding affinity to human P2X7 receptor expressed in HEK293 cells assessed as inhibition of BzATP-induced increase in ethidium bromide uptake by fluorescence plate reader analysis

pIC50: 8.01
Structure (SMILES): O=C(NCc1cccc(C(F)(F)F)c1Cl)[C@@H]1CCC(=O)N1C/C=C/I
